Measured values published in ChEMBL document CHEMBL5154744, “Stereo-Defined Acyclic Nucleoside Phosphonates are Selective and Potent Inhibitors of Parasite 6-Oxopurine Phosphoribosyltransferases” (J Med Chem, 2022).

How the values were obtained:
NHDF = assay: Cytotoxicity against human NHDF cells assessed as cell viability at 10 uM; type: toxicity, cell-based
[1] = Inhibition of His-tagged Trypanosoma brucei HGXPRT expressed in Escherichia coli BL21 (DE3) cells using PRib-PP as substrate by spectrophotometric assay
[2] = Inhibition of Plasmodium vivax HGPRT using PRib-PP as substrate by spectrophotometric assay
[3] = Inhibition of His-tagged Trypanosoma brucei HGPRT1 expressed in Escherichia coli BL21 (DE3) cells using PRib-PP as substrate by spectrophotometric assay
HeLa = assay: Cytotoxicity against human HeLa cells assessed as cell viability at 10 uM; type: toxicity, cell-based
[4] = biological target: T1, Hypoxanthine-guanine phosphoribosyltransferase (Homo sapiens, UniProt P00492); assay: Inhibition of human HGPRT using PRib-PP as substrate by spectrophotometric assay
T1 sequence (P00492 whole entry): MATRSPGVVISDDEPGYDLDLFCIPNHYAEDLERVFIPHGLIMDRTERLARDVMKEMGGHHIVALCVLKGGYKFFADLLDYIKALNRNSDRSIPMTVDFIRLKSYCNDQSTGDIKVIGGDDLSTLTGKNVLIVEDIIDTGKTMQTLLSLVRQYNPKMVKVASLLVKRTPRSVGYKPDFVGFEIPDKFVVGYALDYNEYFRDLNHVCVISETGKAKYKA

[5] = Inhibition of Plasmodium falciparum HGXPRT using PRib-PP as substrate by spectrophotometric assay

Structure (SMILES) | Activity (NHDF) | Ki [1] [nM] | Ki [2] [nM] | Ki [3] [nM] | Activity (HeLa) | Ki [4] [nM] | Ki [5] [nM]
Nc1nc2c(ncn2C[C@H](COCP(=O)([O-])[O-])OCC(O)CO)c(=O)[nH]1.[Na+].[Na+] (stereo not given in full) | Non-Toxic | 2000 | 5000 | 500 | Non-Toxic | 4000 | 1000
Nc1nc2c(ncn2C[C@@H](COCP(=O)([O-])[O-])OC[C@H](O)P(=O)([O-])[O-])c(=O)[nH]1.[Na+].[Na+].[Na+].[Na+] | Non-Toxic | 30 | 20 | 2 | Non-Toxic | 100 | 50
O=c1[nH]cnc2c1ncn2C[C@@H](COCP(=O)([O-])[O-])OCC(O)CO.[Na+].[Na+] (stereo not given in full) | Non-Toxic | 14000 | 13000 | 1000 | Non-Toxic |  | 2400
O=C(CCP(=O)(O)O)N1CC(OCCP(=O)(O)O)[C@H](n2cnc3c(=O)[nH]cnc32)C1 (stereo not given in full) |  |  | 80 |  |  | 20 | 14
O=c1[nH]cnc2c1ncn2C[C@@H](COCP(=O)([O-])[O-])OCC(O)P(=O)([O-])[O-].[Na+].[Na+].[Na+].[Na+] (stereo not given in full) | Non-Toxic | 30 | 200 | 30 | Non-Toxic | 4000 | 400
Nc1nc2c(ncn2C[C@H](COCP(=O)([O-])[O-])OCCCP(=O)([O-])[O-])c(=O)[nH]1.[Na+].[Na+].[Na+].[Na+] | Non-Toxic | 60 | 700 | 40 | Non-Toxic | 400 | 800
Nc1nc2c(ncn2C[C@@H](COCP(=O)([O-])[O-])OCCCP(=O)([O-])[O-])c(=O)[nH]1.[Na+].[Na+].[Na+].[Na+] | Non-Toxic | 250 | 400 | 10 | Non-Toxic | 500 | 200
O=c1[nH]cnc2c1ncn2C[C@@H](COCP(=O)([O-])[O-])OCCCP(=O)([O-])[O-].[Na+].[Na+].[Na+].[Na+] | Non-Toxic | 450 |  | 400 | Non-Toxic | 22000 | 6000
O=C(CCP(=O)(O)O)N1CC(OC[C@@H](O)P(=O)(O)O)[C@H](n2cnc3c(=O)[nH]cnc32)C1 (stereo not given in full) |  |  | 6 |  |  |  | 2
Nc1nc2c(ncn2C[C@@H](COCP(=O)([O-])[O-])OC[C@@H](O)P(=O)([O-])[O-])c(=O)[nH]1.[Na+].[Na+].[Na+].[Na+] | Non-Toxic | 20 | 20 | 2 | Non-Toxic | 70 | 30
O=c1[nH]cnc2c1ncn2CCCC(O)C(O)P(=O)(O)O (stereo not given) |  | 6000 |  | 7000 |  | 5000 | 3000
Nc1nc2c(ncn2CCOCC(O)P(=O)(O)O)c(=O)[nH]1 (stereo not given) |  | 600 |  |  |  | 200 | 300
Nc1nc2c(ncn2C[C@H](COCP(=O)([O-])[O-])OCC(O)P(=O)([O-])[O-])c(=O)[nH]1.[Na+].[Na+].[Na+].[Na+] (stereo not given in full) | Non-Toxic | 40 | 300 | 40 | Non-Toxic | 400 | 100
O=c1[nH]cnc2c1ncn2CCC/C=C/P(=O)(O)O |  | 12000 |  | 1000 |  | 6000 | 13000
O=c1[nH]cnc2c1ncn2C[C@H](COCP(=O)([O-])[O-])OCCCP(=O)([O-])[O-].[Na+].[Na+].[Na+].[Na+] | Non-Toxic | 200 |  | 1500 | Non-Toxic | 300 | 
O=c1[nH]cnc2c1ncn2CCOCC(O)P(=O)(O)O (stereo not given) |  | 100 |  | 600 |  | 2000 | 700
Nc1nc2c(ncn2CC(COCP(=O)(O)O)COCP(=O)(O)O)c(=O)[nH]1 |  |  | 600 |  |  |  | 70
O=c1[nH]cnc2c1ncn2C[C@H](COCP(=O)([O-])[O-])OCC(O)CO.[Na+].[Na+] (stereo not given in full) | Non-Toxic | 9000 |  | 2400 | Non-Toxic |  | 
O=c1[nH]cnc2c1ncn2C[C@H](COCP(=O)([O-])[O-])OCC(O)P(=O)([O-])[O-].[Na+].[Na+].[Na+].[Na+] (stereo not given in full) | Non-Toxic | 100 | 700 | 300 | Non-Toxic | 2000 | 
Nc1nc2c(ncn2C[C@@H](COCP(=O)([O-])[O-])OCC(O)CO)c(=O)[nH]1.[Na+].[Na+] (stereo not given in full) | Non-Toxic | 2000 | 2000 | 300 | Non-Toxic | 9000 | 1000
Nc1nc2c(ncn2C[C@@H](COCCOP(=O)(O)O)COCP(=O)(O)O)c(=O)[nH]1 |  |  | 200 |  |  | 6 | 70
Nc1nc2c(ncn2C[C@@H](COCP(=O)([O-])[O-])OCC(O)P(=O)([O-])[O-])c(=O)[nH]1.[Na+].[Na+].[Na+].[Na+] (stereo not given in full) | Non-Toxic | 20 | 10 | 5 | Non-Toxic | 100 | 30
